Test results published in patent US20050148534A1, “Small molecule compositions and methods for increasing drug efficiency using compositions thereof” (priority 2003, published 2005).

Columns and labels:
[1] = tested on: tubulin; assay: Fluorescence-based microtubule polymerization assay (MPA); format: biochemical; settings: mean percentage of paclitaxel or vinblastine activity; 0.75-10 micromolar
Excerpt: Drug-linker constructs may further be screened using functional assays predictive of biological activity. […] Tubulin assembly or inhibition thereof may be monitored by fluorescence using the CytoDYNAMIX Screen™ 10 kit available from Cytoskeleton (1830 S. Acoma St., Denver, Colo.). […] Emission is monitored at 405 nm with excitation at 360 nm. […] Tubulin assembly or inhibition may also be monitored by light scattering which is approximated by the apparent absorption at 350 nm. For paclitaxel drug conjugates BSA is employed to prevent aggregation and glycerol, which is a tubulin polymerization enhancer, is omitted from the kit to increase the signal to noise ratio.
The assay kit (#BK011) was purchased from Cytoskeleton (Denver, Colo.). The assays were carried out according to the manufacturer's instructions, except that 1 mg/ml BSA (Sigma #A3059) was included in all assays. […] Parent drugs and conjugates were tested at 0.75, 1.5, 3 and 10 micromolar final concentration and results represent a comparison of conjugate and parent drug curves obtained from the linear range of the dose responses.

[2] = target: T1, Human thymidine kinase 1 (TK1) (Homo sapiens, UniProt P04183); assay: Thymidine kinase coupled (kinetic) ATP depletion assay; format: biochemical; settings: initial velocity relative to thymidine; 100 μM conjugate
T1 construct: His tag (from pET28b(+)) (N); made in house; host or cells: E. coli BL21-codon plus
T1 sequence (P04183 1-234): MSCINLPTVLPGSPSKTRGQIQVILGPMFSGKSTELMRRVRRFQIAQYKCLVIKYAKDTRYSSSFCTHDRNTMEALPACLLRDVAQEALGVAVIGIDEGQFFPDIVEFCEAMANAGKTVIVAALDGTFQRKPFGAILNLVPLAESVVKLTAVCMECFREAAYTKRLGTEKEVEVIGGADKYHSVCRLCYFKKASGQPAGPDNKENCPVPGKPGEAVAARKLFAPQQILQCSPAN
Experimental: Thymidine kinase, viral thymidine kinase, TK-1 deoxycytidine kinase, and deoxyguanosine kinase activities are determined by subjecting a first end of a linker used in synthesizing linker-substrate constructs to a first test. The first test may involve observing ADP formation, an obligatory co-product of phospho group transfer from ATP which is catalyzed by the kinase to the C5′ hydroxyl group or its equivalent in the nucleoside or nucleoside analog. Formation of ADP is followed by a coupled enzyme assay well known in the art. ADP, formed from kinase phosphorylation, is used by pyruvate kinase to generate pyruvate from phosphoenolpyruvate which in turn is converted to lactate by lactate dehydrogenase. The lactate results in the consumption of NADH which is followed spectrophotometrically. The rate of nucleoside phosphorylation is then directly related to the rate of decrease in the observed NADH signal.
TK1 was amplified using PCR with forward primer 5′-[…]-3′ and reverse primer 5′-[…]-3′. The PCR product was digested with Nde I and Hind III. An N-terminal His-tagged TK1 construct, TK1/pET28b(+), was generated by subcloning TK1 into the Nde I and Hind III sites of prokaryotic expression vector pET28b (+) (Novagen, San Diego, Calif.). TK1 was expressed from TK1/pET28b(+) using E. coli strain BL21-codon plus (Stratagene, San Diego, Calif.) and purified by Ni column chromatography.
A coupled (kinetic) ATP depletion assay was developed to measure thymidine kinase activity. The reaction contained 100 mM Tris HCl, pH 7.5, 20 mM MgCl2, 100 mM KCl, 0.4 mM PEP, 0.2 mM NADH, Pyruvate Kinase (0.7 units)/Lactate Dehydrogenase (1.0 unit) (Sigma #PO294), 2.5-10 μg Thymidine Kinase, 100 μM thymidine or thymidine-drug conjugate in a volume of 75 μl. ATP (5 mM in 25 μl H2O) was added to initiate the reaction and the velocity of ATP depletion was monitored at 340 nm continuously for 15 minutes.

[3] = target: T2, deoxyguanosine kinase (dGK) (Homo sapiens, UniProt Q16854); settings: substrate activity; literature (Johansson et al.); cited from earlier work
T2 sequence (Q16854 40-277): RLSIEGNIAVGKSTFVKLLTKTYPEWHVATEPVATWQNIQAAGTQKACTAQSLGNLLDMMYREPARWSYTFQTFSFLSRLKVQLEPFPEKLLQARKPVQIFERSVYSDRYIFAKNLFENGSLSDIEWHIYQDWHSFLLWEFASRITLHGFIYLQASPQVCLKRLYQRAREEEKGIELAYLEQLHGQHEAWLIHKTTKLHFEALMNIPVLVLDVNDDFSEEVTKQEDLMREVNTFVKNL

[4] = target: deoxycytidine kinase (dCK) (Homo sapiens, UniProt P27707); settings: substrate activity; literature (Johansson et al.; Eriksson et al.; Wang et al.), source per Table 3; cited from earlier work
Chain of deoxycytidine kinase (dCK) (P27707 whole entry, species assumed): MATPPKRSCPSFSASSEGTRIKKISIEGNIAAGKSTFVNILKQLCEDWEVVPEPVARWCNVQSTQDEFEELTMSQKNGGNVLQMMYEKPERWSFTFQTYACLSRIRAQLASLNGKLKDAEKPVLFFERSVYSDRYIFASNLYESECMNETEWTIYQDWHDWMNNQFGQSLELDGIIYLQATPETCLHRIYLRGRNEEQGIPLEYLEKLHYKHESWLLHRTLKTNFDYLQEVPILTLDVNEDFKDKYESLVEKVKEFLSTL

SMILES | Ave. MPA Act [1] | Ave. TK1 Kinase Act. [2] | dGK [3] | dCK [4]
CC(=O)O[C@@]12CO[C@@H]1C[C@H](O)[C@@]1(C)C(=O)[C@H](OC(=O)NCCOCCOCCOCCn3c(=O)c(C)cn([C@@H]4C[C@H](O)[C@@H](CO)O4)c3=O)C3=C(C)[C@@H](OC(=O)[C@H](O)[C@@H](NC(=O)c4ccccc4)c4ccccc4)C[C@@](O)([C@@H](OC(=O)c4ccccc4)[C@H]21)C3(C)C [PXL-10Ca-PEG(11)-N3-αTHY] | B (B=60-100) | A (A<20) | – | –
O=c1[nH]cnc2c1ncn2[C@H]1C[C@H](O)[C@@H](CO)O1 [dino] | – | – | 100 | 120
CC(=O)O[C@@]12CO[C@@H]1C[C@H](O)[C@@]1(C)C(=O)[C@H](OC(=O)NCCOCCn3c(=O)c(C)cn([C@@H]4C[C@H](O)[C@@H](CO)O4)c3=O)C3=C(C)[C@@H](OC(=O)[C@H](O)[C@@H](NC(=O)c4ccccc4)c4ccccc4)C[C@@](O)([C@@H](OC(=O)c4ccccc4)[C@H]21)C3(C)C [PXL-10Ca-PEG(5)-N3-αTHY] | B (B=60-100) | A (A<20) | – | –
Nc1nc2c(ncn2C2CC(O)C(CO)C2)c(=O)[nH]1 (stereo not shown) [X = CH2, R3 = OH, R5 = H, B = Guanine] | – | – | 70 | –
Nc1ncnc2c1ccn2[C@H]1C[C@H](O)[C@@H](CO)O1 | – | – | 100 | 50
COc1cccc2c1C(=O)c1c(O)c3c(c(O)c1C2=O)C[C@@](O)(C(=O)CO)C[C@@H]3O[C@H]1C[C@H](NCCCN2C(=O)CC(SCCC(=O)NCCOCCOCCOCCn3c(=O)c(C)cn([C@H]4C[C@H](O)[C@@H](CO)O4)c3=O)C2=O)[C@H](O)[C@H](C)O1.O=C(O)C(F)(F)F (stereo partly shown) [DOX-3′Alk-[MALaPEG](22)-N3-THY] | – | A (A<20) | – | –
Nc1nc(Cl)nc2c1ncn2[C@H]1C[C@H](O)[C@@H](CO)O1 [X = O, R3 = OH, R5 = H, B = 2-Cl-Adenine] | – | – | 180 | –
Nc1ncnc2c1ncn2[C@@H]1O[C@H](CO)[C@@H](O)[C@@H]1O [AraA] | – | – | 15 | 50
CC[C@]1(O)C[C@@H]2CN(CCc3c([nH]c4ccccc34)[C@@](C(=O)OC)(c3cc4c(cc3OC)N(C)[C@H]3[C@@](O)(C(=O)NCCCn5c(=O)c(C)cn([C@H]6C[C@H](O)[C@@H](CO)O6)c5=O)[C@H](O)[C@]5(CC)C=CCN6CC[C@]43[C@@H]65)C2)C1 [VBL-3Am-ALK(3)-N3-THY] | C (C>100) | A (A<20) | – | –
Nc1nc2c(ncn2[C@H]2C[C@H](O)[C@@H](CO)O2)c(=O)[nH]1 [dGuo] | – | – | 50 | 300
Nc1nc2c(ncn2[C@@H]2O[C@H](CO)[C@@H](O)[C@@H]2O)c(=O)[nH]1 [AraG] | – | – | 180 | 6
CC(=O)O[C@@]12CO[C@@H]1C[C@H](O)[C@@]1(C)C(=O)[C@H](OC(=O)NCCCCCCn3c(=O)c(C)cn([C@@H]4C[C@H](O)[C@@H](CO)O4)c3=O)C3=C(C)[C@@H](OC(=O)[C@H](O)[C@@H](NC(=O)c4ccccc4)c4ccccc4)C[C@@](O)([C@@H](OC(=O)c4ccccc4)[C@H]21)C3(C)C [PXL-10Ca-ALK(6)-N3-αTHY] | B (B=60-100) | A (A<20) | – | –
CC[C@]1(O)C[C@@H]2CN(CCc3c([nH]c4ccccc34)[C@@](C(=O)OC)(c3cc4c(cc3OC)N(C)[C@H]3[C@@](O)(C(=O)NCCOCCOCCOCCn5c(=O)c(C)cn([C@H]6C[C@H](O)[C@@H](CO)O6)c5=O)[C@H](O)[C@]5(CC)C=CCN6CC[C@]43[C@@H]65)C2)C1 [VBL-3Am-PEG(11)-N3-THY] | A (A<60) | B (B=20-40) | – | –
O=c1[nH]cnc2c1ncn2C1OC(CO)C(O)C1O (stereo not shown) | – | – | 290 | –
CC[C@]1(O)C[C@@H]2CN(CCc3c([nH]c4ccccc34)[C@@](C(=O)OC)(c3cc4c(cc3OC)N(C)[C@H]3[C@@](O)(C(=O)NCCCCn5c(=O)c(C)cn([C@H]6C[C@H](O)[C@@H](CO)O6)c5=O)[C@H](O)[C@]5(CC)C=CCN6CC[C@]43[C@@H]65)C2)C1 [VBL-3Am-ALK(4)-N3-THY] | C (C>100) | B (B=20-40) | – | –
CC[C@]1(O)C[C@@H]2CN(CCc3c([nH]c4ccccc34)[C@@](C(=O)OC)(c3cc4c(cc3OC)N(C)[C@H]3[C@@](O)(C(=O)NCCCCCCn5c(=O)c(C)cn([C@H]6C[C@H](O)[C@@H](CO)O6)c5=O)[C@H](O)[C@]5(CC)C=CCN6CC[C@]43[C@@H]65)C2)C1 [VBL-3Am-ALK(6)-N3-THY] | B (B=60-100) | A (A<20) | – | –
CC[C@]1(O)C[C@@H]2CN(CCc3c([nH]c4ccccc34)[C@@](C(=O)OC)(c3cc4c(cc3OC)N(C)[C@H]3[C@@](O)(C(=O)NCCOCCn5c(=O)c(C)cn([C@H]6C[C@H](O)[C@@H](CO)O6)c5=O)[C@H](O)[C@]5(CC)C=CCN6CC[C@]43[C@@H]65)C2)C1 [VBL-3Am-PEG(5)-N3-THY] | C (C>100) | A (A<20) | – | –
Nc1ncnc2c1ncn2C1CC(O)C(CO)O1 (stereo not shown) [dado] | – | – | 100 | –
